Assay results: ChEMBL document CHEMBL4257571, “Discovery of 5-(2-chloro-4'-(1H-imidazol-1-yl)-[1,1'-biphenyl]-4-yl)-1H-tetrazole as potent and orally efficacious S-nitrosoglutathione reductase (GSNOR) inhibitors for the potential treatment of COPD” (Bioorg Med Chem Lett, 2018); call rule not given here

Legend:
[1] = biological target: T1, Alcohol dehydrogenase class-3 (Homo sapiens, UniProt P11766); assay: Inhibition of human GSNOR assessed as reduction in NADH consumption after 3 mins by spectrophotometric analysis
Target sequence in this assay (P11766 whole entry): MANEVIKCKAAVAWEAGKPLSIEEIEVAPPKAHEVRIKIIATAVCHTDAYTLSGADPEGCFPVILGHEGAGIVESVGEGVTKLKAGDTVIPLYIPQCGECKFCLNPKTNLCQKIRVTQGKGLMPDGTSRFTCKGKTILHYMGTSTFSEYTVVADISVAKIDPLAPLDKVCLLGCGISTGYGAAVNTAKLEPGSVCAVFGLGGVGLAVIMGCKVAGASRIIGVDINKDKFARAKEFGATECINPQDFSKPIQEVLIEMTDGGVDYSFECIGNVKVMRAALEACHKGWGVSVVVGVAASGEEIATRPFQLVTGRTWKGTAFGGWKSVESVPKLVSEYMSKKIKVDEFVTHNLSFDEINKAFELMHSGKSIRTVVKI

Mus musculus [2] = assay: Anti-inflammatory activity in C57BL/6 mouse model of cigarette smoke induced chronic obstructive pulmonary disease assessed as neutrophil level in bronchoalveolar lavage at 5 mg/kg, po BID administered 1 hr prior to both smoke exposure for 7 days by Leishman's staining based assay; assay type: functional
Mus musculus [3] = assay: Anti-inflammatory activity in C57BL/6 mouse model of cigarette smoke induced chronic obstructive pulmonary disease assessed as macrophages level in bronchoalveolar lavage at 5 mg/kg, po BID administered 1 hr prior to both smoke exposure for 7 days by Leishman's staining based assay; assay type: functional
Mus musculus [4] = assay: Anti-inflammatory activity in C57BL/6 mouse model of cigarette smoke induced chronic obstructive pulmonary disease assessed as total leukocyte count in bronchoalveolar lavage at 5 mg/kg, po BID administered 1 hr prior to both smoke exposure for 7 days by hemocytometry; assay type: functional
CYP2C9 = CYP2C9 (Homo sapiens, UniProt P11712); assay: Inhibition of CYP2C9 in human liver microsomes at 10 uM after 20 mins in presence of NADPH by LC/MS/MS analysis relative to control; assay type: ADME
CYP2C9, sequence (P11712 whole entry): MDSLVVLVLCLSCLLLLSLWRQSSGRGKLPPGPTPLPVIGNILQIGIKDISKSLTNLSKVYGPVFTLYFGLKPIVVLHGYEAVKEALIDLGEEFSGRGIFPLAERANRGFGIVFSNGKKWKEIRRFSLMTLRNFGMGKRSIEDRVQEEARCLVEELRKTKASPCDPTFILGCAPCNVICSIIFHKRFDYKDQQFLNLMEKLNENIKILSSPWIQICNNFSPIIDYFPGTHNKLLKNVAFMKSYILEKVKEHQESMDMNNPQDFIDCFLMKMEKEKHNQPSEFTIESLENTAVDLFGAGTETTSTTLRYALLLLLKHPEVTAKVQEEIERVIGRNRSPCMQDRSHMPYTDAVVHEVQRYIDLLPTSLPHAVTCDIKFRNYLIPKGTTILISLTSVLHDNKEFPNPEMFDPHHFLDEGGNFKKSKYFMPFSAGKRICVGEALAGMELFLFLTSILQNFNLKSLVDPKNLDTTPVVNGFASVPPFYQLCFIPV

CYP3A4 = CYP3A4 (Homo sapiens, UniProt P08684); assay: (§1) Inhibition of CYP3A4 in human liver microsomes at 10 uM after 20 mins in presence of NADPH by LC/MS/MS analysis relative to control; assay type: ADME; conditions: liver microsomes
CYP3A4, sequence (P08684 whole entry): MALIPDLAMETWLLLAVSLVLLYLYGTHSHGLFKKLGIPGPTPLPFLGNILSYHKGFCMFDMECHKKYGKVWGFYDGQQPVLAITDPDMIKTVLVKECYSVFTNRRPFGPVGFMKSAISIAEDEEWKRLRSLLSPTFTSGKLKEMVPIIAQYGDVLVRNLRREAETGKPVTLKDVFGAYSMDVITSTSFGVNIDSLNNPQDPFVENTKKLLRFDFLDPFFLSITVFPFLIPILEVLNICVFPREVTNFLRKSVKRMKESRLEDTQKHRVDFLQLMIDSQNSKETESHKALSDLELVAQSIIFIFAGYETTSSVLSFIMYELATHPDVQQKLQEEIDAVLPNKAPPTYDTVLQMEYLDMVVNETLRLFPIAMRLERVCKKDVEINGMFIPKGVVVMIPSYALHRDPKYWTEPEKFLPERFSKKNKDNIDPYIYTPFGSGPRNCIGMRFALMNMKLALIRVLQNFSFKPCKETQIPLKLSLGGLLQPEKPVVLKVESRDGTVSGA

CYP2D6 = CYP2D6 (Homo sapiens, UniProt P10635); assay: (§2) Inhibition of CYP2D6 in human liver microsomes at 10 uM after 20 mins in presence of NADPH by LC/MS/MS analysis relative to control; assay type: ADME; conditions: liver microsomes
CYP2D6, sequence (P10635 whole entry): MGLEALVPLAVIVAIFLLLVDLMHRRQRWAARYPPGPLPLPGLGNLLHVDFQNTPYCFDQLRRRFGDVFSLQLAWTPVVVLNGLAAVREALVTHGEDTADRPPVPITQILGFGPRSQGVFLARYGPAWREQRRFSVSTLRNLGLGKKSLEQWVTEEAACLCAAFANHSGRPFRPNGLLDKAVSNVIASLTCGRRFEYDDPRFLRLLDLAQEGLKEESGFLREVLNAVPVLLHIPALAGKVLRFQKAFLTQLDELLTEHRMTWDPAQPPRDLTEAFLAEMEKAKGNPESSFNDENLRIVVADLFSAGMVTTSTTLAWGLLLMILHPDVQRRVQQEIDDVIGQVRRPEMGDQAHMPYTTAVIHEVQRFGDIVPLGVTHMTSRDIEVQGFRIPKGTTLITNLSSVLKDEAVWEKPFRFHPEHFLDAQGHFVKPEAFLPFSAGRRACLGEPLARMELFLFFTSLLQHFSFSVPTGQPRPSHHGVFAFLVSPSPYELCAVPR

[5] = Metabolic stability of mouse liver microsomes assessed as parent compound remaining at 0.1 uM after 60 mins in presence of NADPH by LC/MS/MS analysis; assay type: ADME, microsome; conditions: read-out: Stability
[6] = Metabolic stability of rat liver microsomes assessed as parent compound remaining at 0.1 uM after 60 mins in presence of NADPH by LC/MS/MS analysis; assay type: ADME, microsome; conditions: read-out: Stability
[7] = Metabolic stability of human liver microsomes assessed as parent compound remaining at 0.1 uM after 60 mins in presence of NADPH by LC/MS/MS analysis; assay type: ADME, microsome; conditions: read-out: Stability
CYP1A2 = biological target: T2, CYP1A2 (Homo sapiens, UniProt P05177); assay: (§3) Inhibition of CYP1A2 in human liver microsomes at 10 uM after 20 mins in presence of NADPH by LC/MS/MS analysis relative to control; assay type: ADME; conditions: liver microsomes
T2 sequence (P05177 whole entry): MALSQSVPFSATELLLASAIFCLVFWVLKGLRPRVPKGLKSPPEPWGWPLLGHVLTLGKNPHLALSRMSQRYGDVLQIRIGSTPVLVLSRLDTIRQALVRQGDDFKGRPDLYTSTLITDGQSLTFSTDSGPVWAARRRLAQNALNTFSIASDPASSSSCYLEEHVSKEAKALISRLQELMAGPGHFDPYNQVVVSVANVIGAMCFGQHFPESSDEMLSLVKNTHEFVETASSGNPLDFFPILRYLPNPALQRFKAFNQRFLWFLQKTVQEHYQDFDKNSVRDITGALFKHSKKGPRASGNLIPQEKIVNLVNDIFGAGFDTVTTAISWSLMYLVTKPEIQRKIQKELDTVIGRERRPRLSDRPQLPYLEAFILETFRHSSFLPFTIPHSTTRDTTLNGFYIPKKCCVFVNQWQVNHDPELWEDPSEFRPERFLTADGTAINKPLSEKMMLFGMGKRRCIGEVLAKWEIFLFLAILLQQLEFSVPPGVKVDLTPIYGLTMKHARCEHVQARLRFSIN

CYP2C19 = CYP2C19 (Homo sapiens, UniProt P33261); assay: Inhibition of CYP2C19 in human liver microsomes at 10 uM after 40 mins in presence of NADPH by LC/MS/MS analysis relative to control; assay type: ADME
CYP2C19, sequence (P33261 whole entry): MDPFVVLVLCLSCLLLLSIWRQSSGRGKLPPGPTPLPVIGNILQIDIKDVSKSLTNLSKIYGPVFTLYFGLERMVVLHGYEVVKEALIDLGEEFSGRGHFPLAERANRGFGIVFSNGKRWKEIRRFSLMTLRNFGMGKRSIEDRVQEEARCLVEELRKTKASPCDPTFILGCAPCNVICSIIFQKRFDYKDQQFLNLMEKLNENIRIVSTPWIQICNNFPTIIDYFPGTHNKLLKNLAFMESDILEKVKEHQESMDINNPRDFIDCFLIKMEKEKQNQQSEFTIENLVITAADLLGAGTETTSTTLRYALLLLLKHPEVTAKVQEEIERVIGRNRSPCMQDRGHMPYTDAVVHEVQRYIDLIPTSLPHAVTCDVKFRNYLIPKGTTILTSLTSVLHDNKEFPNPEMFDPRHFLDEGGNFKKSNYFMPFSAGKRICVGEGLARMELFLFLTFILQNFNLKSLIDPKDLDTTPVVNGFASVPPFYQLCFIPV

[8] = biological target: T1, Alcohol dehydrogenase class-3; assay: Inhibition of human GSNOR assessed as reduction in NADH consumption at 10 uM after 3 mins by spectrophotometric analysis relative to control
Target sequence in this assay (P11766 2-374 limits assumed): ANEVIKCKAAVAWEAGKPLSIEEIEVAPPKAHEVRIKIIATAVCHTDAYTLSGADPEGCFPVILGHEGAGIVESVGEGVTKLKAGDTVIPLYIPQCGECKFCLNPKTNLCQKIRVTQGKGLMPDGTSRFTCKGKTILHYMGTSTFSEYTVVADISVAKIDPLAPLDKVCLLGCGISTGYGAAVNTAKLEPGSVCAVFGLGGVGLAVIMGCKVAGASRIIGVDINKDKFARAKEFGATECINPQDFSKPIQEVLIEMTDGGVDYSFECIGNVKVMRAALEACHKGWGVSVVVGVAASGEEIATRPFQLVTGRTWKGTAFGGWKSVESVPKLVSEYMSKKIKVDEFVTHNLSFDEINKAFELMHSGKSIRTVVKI

[9] = Volume of distribution in C57/BL6 mouse at 3 mg/kg, iv; assay type: ADME, organism-based; conditions: in vivo, read-out: Vz
[10] = Clearance in C57/BL6 mouse at 3 mg/kg, iv; assay type: ADME, organism-based; conditions: in vivo
[11] = Half life in C57/BL6 mouse at 3 mg/kg, iv; assay type: ADME, organism-based; conditions: in vivo
[12] = Ratio of drug uptake in lung to plasma of C57/BL6 mouse at 3 mg/kg, iv or 30 mg/kg, po; assay type: ADME, organism-based
[13] = Half life in C57/BL6 mouse at 30 mg/kg, po; assay type: ADME, organism-based; conditions: in vivo
[14] = Tmax in C57/BL6 mouse at 30 mg/kg, po; assay type: ADME, organism-based; conditions: in vivo
[15] = Oral bioavailability in C57/BL6 mouse at 30 mg/kg; assay type: ADME, organism-based; conditions: in vivo
[16] = AUC (0 to 24 hrs) in C57/BL6 mouse at 30 mg/kg, po; assay type: ADME, organism-based; parameters: time < 24 hr, dose 30 mg/kg, route oral; conditions: in vivo
[17] = Cmax in C57/BL6 mouse at 30 mg/kg, po; assay type: ADME, organism-based; parameters: dose 30 mg/kg, route oral; conditions: in vivo
Cytochrome P450 3A4 = Cytochrome P450 3A4 (Homo sapiens, UniProt P08684); assay: as §1; assay type: ADME; conditions: microsomes, 20 min, 10 µM
Cytochrome P450 3A4, sequence (P08684 whole entry): as the sequence (P08684 whole entry) above

Cytochrome P450 2D6 = Cytochrome P450 2D6 (Homo sapiens, UniProt P10635); assay: as §2; assay type: ADME; conditions: microsomes, 20 min, 10 µM
Cytochrome P450 2D6, sequence (P10635 whole entry): as the sequence (P10635 whole entry) above

Cytochrome P450 1A2 = biological target: T3, Cytochrome P450 1A2 (Homo sapiens, UniProt P05177); assay: as §3; assay type: ADME; conditions: microsomes, 20 min, 10 µM
T3 sequence (P05177 whole entry): T2 sequence (P05177 whole entry)

With `O=C(O)c1ccc(-c2ccc(-n3ccnc3)cc2)c(C(F)(F)F)c1` the IC50 [1] was 38 nM.

For `O=C(Nc1c(Cl)cncc1Cl)c1ccc(OC(F)F)c(OCC2CC2)c1` [ROFLUMILAST], the Activity (Mus musculus [2]) was 40%, the Activity (Mus musculus [3]) was 75% and the Activity (Mus musculus [4]) was 58%.

Work on `CCc1cc(-n2ccnc2)ccc1-c1ccc(-c2nnn[nH]2)cc1F` yielded an inhibition at 20 min, 10 µM (CYP2C9) of 78%, an inhibition at 20 min, 10 µM (CYP3A4) of 30% and an IC50 [1] of 11 nM. It also gave an inhibition at 20 min, 10 µM (CYP2D6) of 52%, a remaining at 1 h, 0.1 µM [5] of 78% and a remaining at 1 h, 0.1 µM [6] of 80%. The remaining at 1 h, 0.1 µM [7] was 97%, the inhibition at 20 min, 10 µM (CYP1A2) was 41% and the inhibition at 40 min, 10 µM (CYP2C19) was 88%.

For `c1cn(-c2ccc(-c3ccc(-c4nn[nH]n4)cc3)cc2)cn1`, the inhibition at 20 min, 10 µM (CYP2C9) was 77%, the inhibition at 20 min, 10 µM (CYP3A4) was 54% and the IC50 [1] was 22 nM. The inhibition at 20 min, 10 µM (CYP2D6) was 73%, the remaining at 1 h, 0.1 µM [5] was 31% and the remaining at 1 h, 0.1 µM [6] was 58%. The remaining at 1 h, 0.1 µM [7] was 66%, the inhibition at 20 min, 10 µM (CYP1A2) was 74% and the inhibition at 40 min, 10 µM (CYP2C19) was 69%.

`Fc1cc(-c2nnn[nH]2)ccc1-c1ccc(-n2ccnc2)cc1` gave an IC50 [1] of 20 nM.

`c1cn(-c2ccc(-c3ccc(-c4nnn[nH]4)cc3)nc2)cn1` showed an IC50 [1] of 32 nM.

Work on `O=c1nc(-c2ccc(-c3ccc(-n4ccnc4)cc3)cc2)[nH]o1` yielded an IC50 [1] of 152 nM.

`Clc1cc(-c2nn[nH]n2)ccc1-c1ccc(-n2cnnn2)cc1` showed an inhibition [8] of 36%.

Molecule `Clc1cc(-c2nn[nH]n2)ccc1-c1ccc(-n2cnnc2)cc1` has an IC50 [1] of 593 nM.

Work on `Clc1cc(-c2nnn[nH]2)ccc1-c1ccc(-n2ccnc2)cn1` yielded an IC50 [1] of 308 nM.

`O=C(O)c1ccc(-c2ncc(-n3ccnc3)cc2Cl)cc1` showed an IC50 [1] of 89 nM.

In the case of `O=C(O)c1ccc(-c2ccc(-n3ccnc3)cn2)cc1`, the IC50 [1] is reported as 214 nM.

Molecule `Cc1cc(-n2ccnc2)cnc1-c1ccc(-c2nnn[nH]2)cc1F` has a Vd [9] of 2.8 L/kg, a clearance [10] of 17 mL/min/kg and a half-life [11] of 114 min. The Kp [12] was 0.62, the inhibition at 20 min, 10 µM (CYP2C9) was 60% and the inhibition at 20 min, 10 µM (CYP3A4) was 19%. The half-life [13] was 318 min, the IC50 [1] was 14 nM and the Tmax [14] was 30 min. For the same molecule, the inhibition at 20 min, 10 µM (CYP2D6) was 12%, the remaining at 1 h, 0.1 µM [5] was 42% and the bioavailability [15] was 49%. The remaining at 1 h, 0.1 µM [6] was 53%, the remaining at 1 h, 0.1 µM [7] was 100% and the inhibition at 20 min, 10 µM (CYP1A2) was -15%. It also gave an AUC(0-t) at 24 h [16] of 14200 ng·h/mL, a Cmax [17] of 2560 ng/mL and an inhibition at 40 min, 10 µM (CYP2C19) of 45%.

In the case of `Cc1cc(-c2nnn[nH]2)ccc1-c1ccc(-n2ccnc2)cn1`, the IC50 [1] is reported as 44 nM.

For `FC(F)(F)c1cc(-c2nnn[nH]2)ccc1-c1ccc(-n2ccnc2)cc1`, the IC50 [1] was 39 nM.

With `Fc1cc(-c2nnn[nH]2)ccc1-c1ncc(-n2ccnc2)cc1Cl` the inhibition at 20 min, 10 µM (CYP2C9) was 50%, the “inhibition (INH)” value (Cytochrome P450 3A4) was “Not Active” and the IC50 [1] was 27 nM. For the same molecule, the “inhibition (INH)” value (Cytochrome P450 2D6) was “Not Active”, the “inhibition (INH)” value (Cytochrome P450 1A2) was “Not Active” and the inhibition at 40 min, 10 µM (CYP2C19) was 42%.

`Cc1cc(-c2nnn[nH]2)ccc1-c1ncc(-n2ccnc2)cc1Cl` gave an IC50 [1] of 935 nM.

With `c1cc(-c2nn[nH]n2)ccc1-c1ccc(-c2nnn[nH]2)cc1` the IC50 [1] was 3280 nM.

`O=C(O)c1ccc(-c2ccc(-n3ccnc3)cc2)c(F)c1` gave an IC50 [1] of 29 nM.

With `O=C(O)c1ccc(-c2ccc(-n3ccnc3)cc2)c(Cl)c1` the IC50 [1] was 30 nM.

With `CCc1cc(-n2ccnc2C)ccc1-c1ccc(-c2nnn[nH]2)cc1` the inhibition at 20 min, 10 µM (CYP2C9) was 48%, the inhibition at 20 min, 10 µM (CYP3A4) was 18% and the IC50 [1] was 24 nM. For the same molecule, the “inhibition (INH)” value (Cytochrome P450 2D6) was “Not Active”, the remaining at 1 h, 0.1 µM [5] was 87% and the remaining at 1 h, 0.1 µM [6] was 99%. It also gave a remaining at 1 h, 0.1 µM [7] of 5%, an inhibition at 20 min, 10 µM (CYP1A2) of 13% and an inhibition at 40 min, 10 µM (CYP2C19) of 67%.

For `Cc1cc(-n2ccnc2)ccc1-c1ccc(-c2nnn[nH]2)cc1Cl`, the inhibition at 20 min, 10 µM (CYP2C9) was 83%, the inhibition at 20 min, 10 µM (CYP3A4) was 43% and the IC50 [1] was 12 nM. It also gave an inhibition at 20 min, 10 µM (CYP2D6) of 63%, an inhibition at 20 min, 10 µM (CYP1A2) of 47% and an inhibition at 40 min, 10 µM (CYP2C19) of 76%.
